System: Nucleic Acid
Assay: Apparent binding constant towards calf thymus DNA
Format: nucleic-acid assay
Settings: Bos taurus

Question: Which K app does the source give for `CC/N=c1/cc2oc3cc(NCC)c(C)cc3nc-2c2ccccc12` here?
Answer: 26000 M⁻¹

From ChEMBL document CHEMBL1139502, “Oxazine 170 induces DNA:RNA:DNA triplex formation” (J Med Chem, 2005)
